Experimental data reported in article PMC10016340 (Chemical Science, 2023).
Where two headings read alike, the source gives them in different places. One block for each compound: values may come before it.

Columns and labels:
[1] = target: αSOs-Alexa488 binding to DOPG liposomes (Homo sapiens, UniProt P37840); assay: FIDA αSO-vesicle binding inhibition assay; details: 5 μM compound, 50 μM DOPG; αSO-vesicle complex without compound ∼60 nm
[2] = Ultracentrifugation for compound-vesicle binding; details: 100 μM compound, 1 mM DOPG vesicles, 30 min, ultracentrifugation 1 h 40 000 rpm
α-syn = α-syn (Homo sapiens, UniProt P37840); assay: ThT aggregation kinetics of α-syn; format: biochemical; details: for Effect on α-syn fibril formation (ThT, words): 300 rpm, 37 °C
αSO = αSO (Homo sapiens, UniProt P37840); assay: biochemical; format: binding; details: for αSO binding signal in sandwich ELISA vs positive control: 2 mM compound, 1 μg mL^−1 αSOs
αSOs-Alexa488 [3] = target: T1, αSOs-Alexa488 (Homo sapiens, UniProt P37840); assay: FIDA effect of lead compounds on free αSOs; format: binding; details: 150 nM αSO, 5 μM compound; 13% without compound
[4] = target: T2, αSO (α-synuclein oligomers) (Homo sapiens, UniProt P37840); assay: Membrane permeabilization; format: biochemical; details: for Response in dose-response calcein assay: even at 20 μM
[5] = target: T2, αSO (α-synuclein oligomers); details: cited from earlier work
[6] = tested on: human neuroblastoma cells; details: by inhibiting interactions with lipid membranes; cited from earlier work
αSOs-Alexa488 [7] = target: T1, αSOs-Alexa488; assay: FIDA binding of αSOs to neuronal proteins in solution

- Apparent size (Rh) of αSOs-Alexa488 in the presence of DOPG liposomes and compound [1]: ~10 nm
- Percentage of compound bound to DOPG vesicles (pelleted) [2]: 60–95%
- Decrease of half-time of fibrillation compared to α-syn alone (α-syn; 20 μM α-syn, 20 μM compound): ~2 fold
- Kd (αSO): 130 ± 40 µM
- αSO binding signal in sandwich ELISA vs positive control (αSO): decrease in binding
Compound: [H]/N=C(\N/C(=N/[H])NCCCCCCNC(=N)NC(=N)Nc1ccc(Cl)cc1)Nc1ccc(Cl)cc1 [A1, Chlorhexidine]

- Apparent size (Rh) of αSOs-Alexa488 in the presence of DOPG liposomes and compound [1]: ~10 nm
- Percentage of α-syn monomers in αSO sample (αSOs-Alexa488 [3]): 23%
- Percentage of compound bound to DOPG vesicles (pelleted) [2]: 60–95%
- Decrease of half-time of fibrillation compared to α-syn alone (α-syn; 20 μM α-syn, 20 μM compound): ~2 fold
- Kd (αSO): 120 ± 90 µM
- αSO binding signal in sandwich ELISA vs positive control (αSO): decrease in binding
Compound: Cc1cc(C(C)(C)CC(C)(C)C)ccc1OCCOCC[N+](C)(C)Cc1ccccc1 [A2, Methyl benzethonium]

- Percentage of compound bound to DOPG vesicles (pelleted) [2]: 60–95%
Compound: CC(C)(C)CC(C)(C)c1ccc(OCCOCC[N+](C)(C)Cc2ccccc2)cc1 [A3, Benzethonium]

- Response in dose-response calcein assay [4]: failed to show any response
- Effect on α-syn fibril formation (ThT, words) (α-syn; 20 μM α-syn, 20 μM compound): completely inhibited fibril formation
Compound: C=C1c2cccc(O)c2C(=O)C2=C(O)[C@]3(O)C(=O)C(C(N)=O)=C(O)[C@@H](N(C)C)[C@@H]3[C@@H](O)[C@H]12 [A5, Metacycline]
- αSO binding signal in sandwich ELISA vs positive control (αSO): slightly higher absorption than the positive control

- IC50 [4]: 0.32 µM
- Apparent size (Rh) of αSOs-Alexa488 in the presence of DOPG liposomes and compound [1]: ~10 nm
- Percentage of compound bound to DOPG vesicles (pelleted) [2]: 60–95%
- Effect on lag phase of α-syn aggregation (α-syn; 20 μM α-syn, 20 μM compound): modestly increased the lag phase
- αSO binding signal in sandwich ELISA vs positive control (αSO): to a smaller extent
Compound: COc1ccccc1CNCCCCCCNCCCCCCCCNCCCCCCNCc1ccccc1OC [A6, Methoctramine]

- Response in dose-response calcein assay [4]: failed to show any response
Compound: CC(C)=CC[C@@H](O)C1=CC(=O)c2c(O)ccc(O)c2C1=O [A7, Shikonin]
- αSO binding signal in sandwich ELISA vs positive control (αSO): slightly higher absorption than the positive control

Compound: N.N.[Cl][Pt][Cl] [A8, Cisplatin]
- Percentage of compound bound to DOPG vesicles (pelleted) [2]: 0–2%

Compound: N.N.O=C([O-])C1(C(=O)[O-])CCC1.[Pt+2] [A9, Carboplatin]
- Response in dose-response calcein assay [4]: failed to show any response

- Apparent size (Rh) of αSOs-Alexa488 in the presence of DOPG liposomes and compound [1]: 50 nm
- Percentage of α-syn monomers in αSO sample (αSOs-Alexa488 [3]): 22%
- Percentage of compound bound to DOPG vesicles (pelleted) [2]: 0–2%
- Effect on α-syn fibril formation (ThT, words) (α-syn; 20 μM α-syn, 20 μM compound): completely inhibited fibril formation
Compound: O=C(O[C@@H]1Cc2c(O)cc(O)cc2O[C@@H]1c1cc(O)c(O)c(O)c1)c1cc(O)c(O)c(O)c1 [EGCG]
- Inhibition of calcein release ([5]; positive control): completely inhibits calcein release

Compound: C/C=C1/[C@H](O[C@@H]2O[C@H](CO)[C@@H](O)[C@H](O)[C@H]2O)OC=C(C(=O)OC)[C@H]1CC(=O)OCCc1ccc(O)c(O)c1 [oleuropein]
- Inhibition of calcein release ([5]; negative control): weak or no inhibitory effect

Compound: CC(C)[C@@H](CC[C@@H](C)[C@H]1CC[C@H]2[C@@H]3[C@H](O)C[C@H]4C[C@@H](NCCCNCCCCN)CC[C@]4(C)[C@H]3CC[C@]12C)OS(=O)(=O)O [squalamine]
- Suppression of αSO toxicity [6]: completely suppress the toxicity of αSOs

- Effect of protein ligand on α-syn aggregation (ThT, words) (α-syn; 20 μM α-syn monomer, 1 μM ligand): dramatic reduction in aggregation
Compound: Cofilin-1 [Cfl1]
- Change in Rh of αSOs-Alexa488 on titration with ligand (αSOs-Alexa488 [7]; up to 150 μM ligand, in solution): little change in Rh

- Rh of αSOs-Alexa488 after binding to ligand (αSOs-Alexa488 [7]; 100–150 μM ligand, αSO alone 10 nm): ~12.5 nm
Compound: Serine-tRNA ligase [SerRS]
- Reduction of half-time of α-syn fibrillation (α-syn; 20 μM α-syn, 1 μM ligand): more than 3 fold
